Patent publication US20160317468A1, “USES OF CANNABIDIOL FOR TREATMENT OF INFANTILE SPASMS” (priority 2015, published 2016)

Key:
infantile spasms [1] = test: Clinical trial of a composition comprising cannabidiol in subjects with infantile spasms, overnight video-EEG on day 14; format: in vivo; details: human subjects 6 to 36 months who failed hormonal therapy and vigabatrin, CBD titrated to 40 mg/kg/day TID, control receives placebo
Experimental: Human subjects with video-EGG confirmed infantile spasms, between the ages of 6 months and 36 months, who have failed adequate treatments with hormonal therapy (adrenocorticotropic hormone (ACTH) (e.g., 150 IU/m2/day×2 weeks) and/or prednisolone (e.g., 8 mg/kg/day×2 weeks) and vigabatrin (e.g., 150 mg/kg/day×2 weeks)) will receive a composition comprising cannabidiol (“CBD”) according to the treatment schedule of Table 5. The control group receives placebo.
The 40 mg/kg/day treatment is optionally extended for up to one year in the cannabidiol group for subjects who display a response (FIG. 1). The cannabidiol dosage is tapered in the cannabidiol group according to Table 6.

infantile spasms [2] = details: high-dose study; intramuscular ACTH therapy; cited from earlier work

Compound | symptoms of infantile spasms on overnight video-EEG, cannabidiol group relative to control group (infantile spasms [1]) | patients with cessation of seizures and normal EEG patterns (infantile spasms [2])
C=C(C)[C@@H]1CCC(C)=C[C@H]1c1c(O)cc(CCCCC)cc1O [cannabidiol, (−)-trans-2-p-mentha-1,8-dien-3-yl-5-pentylresorcinol] | reduced symptoms of infantile spasms | –
adrenocorticotropic hormone (SYSMEHFRWGKPVGKKRRPVKVYPNGAEDESAEAFPLEF; Corticotropin; UniProt P01189 138-176, looked up) [ACTH] | – | 13 of the 15
